As usually defined, the IC50 is the point on the concentration scale where inhibition reaches its midpoint.

In one series the target is T1, Aurora kinase A (Homo sapiens, UniProt O14965).
T1 sequence (O14965 whole entry): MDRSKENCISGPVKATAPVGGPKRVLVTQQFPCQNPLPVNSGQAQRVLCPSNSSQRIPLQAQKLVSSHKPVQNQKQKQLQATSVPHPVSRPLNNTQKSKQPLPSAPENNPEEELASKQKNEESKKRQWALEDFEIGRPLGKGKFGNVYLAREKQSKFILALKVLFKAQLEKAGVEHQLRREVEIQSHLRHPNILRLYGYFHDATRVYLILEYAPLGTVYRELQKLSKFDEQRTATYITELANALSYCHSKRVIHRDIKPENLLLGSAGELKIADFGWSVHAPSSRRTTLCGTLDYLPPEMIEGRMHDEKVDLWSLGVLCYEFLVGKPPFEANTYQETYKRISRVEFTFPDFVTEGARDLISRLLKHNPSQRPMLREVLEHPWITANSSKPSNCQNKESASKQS
The experiment in a line: Inhibition of recombinant human Aurora A (1 to 403 residues) expressed in Escherichia coli using FAM-labeled peptide as substrate preincubated for 10 mins followed by substrate addition and measured after 20 mins in presence of ATP by HTRF assay. On the technique in general: Time-resolved FRET reads energy transfer from a long-lived donor to a nearby acceptor.

For a further series, the system named is SJSA-1. The experiment in a line: Antiproliferative activity against human SJSA-1 cells assessed as inhibition of cell proliferation incubated for 48 hrs by CCK-8 assay. In kind it is functional, cell-based. The settings on record: SJSA-1, 48 h. (Formazan colour is commonly taken as a measure of viable cells.)
In series [1] the test system is MDA-MB-231. The experiment in a line: Antiproliferative activity against human MDA-MB-231 cells assessed as inhibition of cell proliferation incubated for 48 hrs by CCK-8 assay. In kind it is functional, cell-based. The settings on record: MDA-MB-231, 48 h.
The test system of the next series is A549. Put plainly: Antiproliferative activity against human A549 cells assessed as inhibition of cell proliferation incubated for 48 hrs by CCK-8 assay. The series is classed as functional, cell-based. To be noted: A549, 48 h.
The next series relates to HeLa. The experiment in a line: Antiproliferative activity against human HeLa cells assessed as inhibition of cell proliferation incubated for 48 hrs by CCK-8 assay. In kind it is functional, cell-based.
Series [2] is described as follows: Cytotoxicity against human L02 cells assessed as inhibition of cell proliferation incubated for 48 hrs by CCK-8 assay. The series is classed as toxicity, cell-based.
The test system of series [3] is MDA-MB-231. Put plainly: Antitumor activity against human MDA-MB-231 cells xenografted in BALB/c nude mouse assessed as tumor growth inhibition at 30 mg/kg,ip every 2days for 20 days. The series is classed as functional. To be noted: MDA-MB-231, 480 h, time 20 day, read-out: TGI. A general note: Xenograft models place foreign cells or tissue in a host animal.
The nature of series [4]: Toxicity in BALB/c nude mouse xenografted with human MDA-MB-231 cells assessed as body weight change at 30 mg/kg,ip every 2days for 20 days. The series is classed as organism-based. The settings on record: in vivo, 480 h, time 20 day.

`Cc1cc(Nc2nc(-c3ccc(N)cc3)nc3cc(N4CCN(C)CC4)ccc23)n[nH]1`: the IC50 came out at 0.0031 µM at Aurora kinase A; 2.82 µM in the series with SJSA-1; 0.64 µM with MDA-MB-231 [1]; 4.12 µM with A549; 4.88 µM in the series on HeLa.
As to `Cc1cc(Nc2nc(-c3cccc(N)c3)nc3cc(N4CCN(C)CC4)ccc23)n[nH]1`, the IC50 at Aurora kinase A worked out at 0.0021 µM; in the series with SJSA-1 it was 3.67 µM; in the series on MDA-MB-231 [1] it was 1.75 µM; with A549, 2.06 µM; in the series on HeLa it was 6.77 µM.
Regarding `C=CC(=O)Nc1cc(-c2nc(Nc3cc(C)[nH]n3)c3ccc(N4CCN(C)CC4)cc3n2)ccc1C`, the 50% inhibitory concentration (IC50) amounted to 0.0011 µM on Aurora kinase A; 23.6 µM in the series on SJSA-1; 1.66 µM in the series on MDA-MB-231 [1]; 0.31 µM with A549; 9.13 µM in the series on HeLa. Moreover, in series [2], the IC50 at 48 h was 34.2 µM.
For the compound `Cc1cc(Nc2nc(-c3ccc(OS(=O)(=O)F)cc3)nc3cc(N4CCN(C)CC4)ccc23)n[nH]1`, the IC50 at Aurora kinase A was 0.025 µM; with SJSA-1 it was 23.1 µM; in the series with MDA-MB-231 [1], 4.34 µM; in the series on A549, 1.15 µM; with HeLa, 4.87 µM.
Consider `Cc1cc(Nc2cc(N3CCN(C)CC3)nc(/C=C/c3ccccc3)n2)n[nH]1` [ENMD-2076], for which the half-maximal inhibitory concentration (IC50) with SJSA-1 turned out to be 56.7 µM; in the series on MDA-MB-231 [1], 5.21 µM; in the series with A549 it was 2.65 µM; in the series with HeLa, 9.02 µM. In addition, the 50% inhibitory concentration (IC50) at 48 h in series [2] turned out to be 42.6 µM. Further, the inhibition in vivo at 30 mg/kg in the series on MDA-MB-231 [3] stood at 30.9%. The Activity entry in series [4] is “Non-Toxic”.
Regarding `Cc1cc(Nc2nc(-c3cccc(N)c3)nc3cc(N4CCOCC4)ccc23)n[nH]1`, the IC50 came out at 12.5 µM in the series with SJSA-1, 6.96 µM with MDA-MB-231 [1], 1.77 µM with A549 and 7.52 µM in the series on HeLa.
Consider `C=CC(=O)Nc1cccc(-c2nc(Nc3cc(C)[nH]n3)c3ccc(N4CCOCC4)cc3n2)c1`, for which the IC50 on Aurora kinase A was found to be 0.0017 µM; with SJSA-1 it was 12.5 µM; in the series on MDA-MB-231 [1] it was 5.9 µM; in the series on A549 it was 0.85 µM; with HeLa, 2.23 µM.
For the compound `Cc1cc(Nc2nc(-c3ccccc3O)nc3cc(N4CCN(C)CC4)ccc23)n[nH]1`, the IC50 on Aurora kinase A is 0.0055 µM; in the series on SJSA-1 it was 11.6 µM; in the series on MDA-MB-231 [1] it was 2.43 µM; in the series on A549, 2.69 µM; in the series on HeLa it was 3.8 µM.
Take `Cc1cc(Nc2nc(-c3cccc(O)c3)nc3cc(N4CCN(C)CC4)ccc23)n[nH]1`: the half-inhibitory concentration (IC50) at Aurora kinase A was 0.002 µM; in the series with SJSA-1, 10.7 µM; in the series on MDA-MB-231 [1], 1.49 µM; in the series on A549 it was 2.15 µM; in the series on HeLa, 6.8 µM.
For the compound `Cc1cc(Nc2nc(-c3ccccc3N)nc3cc(N4CCN(C)CC4)ccc23)n[nH]1`, the half-inhibitory concentration (IC50) was determined as 0.011 µM at Aurora kinase A; 2.66 µM in the series with SJSA-1; 0.76 µM in the series with MDA-MB-231 [1]; 1.13 µM with A549; 8.3 µM with HeLa.
On to `Cc1cc(Nc2nc(-c3ccc(O)cc3)nc3cc(N4CCN(C)CC4)ccc23)n[nH]1`, for which the IC50 came out at 0.0025 µM at Aurora kinase A; 17.4 µM with SJSA-1; 1.34 µM in the series on MDA-MB-231 [1]; 4.74 µM in the series on A549; 9.68 µM in the series with HeLa.
With `C=CC(=O)Nc1ccc(-c2nc(Nc3cc(C)[nH]n3)c3ccc(N4CCOCC4)cc3n2)cc1`, the IC50 at Aurora kinase A came out at 0.0027 µM; in the series on SJSA-1 it was 14.8 µM; with MDA-MB-231 [1], 2.66 µM; in the series on A549 it was 0.26 µM; in the series with HeLa, 5.51 µM. In addition, the concentration for half-maximal inhibition (IC50) at 48 h in series [2] came out at 43.2 µM.
For the compound `CCC(=O)Nc1ccc(-c2nc(Nc3cc(C)[nH]n3)c3ccc(N4CCN(C)CC4)cc3n2)cc1`, the IC50 on Aurora kinase A stood at 0.005 µM; in the series with SJSA-1, 28.6 µM; in the series with MDA-MB-231 [1], 2.2 µM; with A549, 1.18 µM; with HeLa, 17.9 µM. Moreover, the IC50 at 48 h in series [2] turned out to be 24.7 µM.
On to `C=CC(=O)Nc1cccc(-c2nc(Nc3cc(C)[nH]n3)c3ccc(N4CCN(C)CC4)cc3n2)c1`, for which the IC50 at Aurora kinase A was determined as 0.0015 µM; in the series with SJSA-1 it was 6.8 µM; in the series with MDA-MB-231 [1], 2.6 µM; in the series on A549 it was 3.27 µM; with HeLa, 4.22 µM.
In the case of `Cc1cc(Nc2nc(-c3ccccc3)nc3cc(N4CCN(C)CC4)ccc23)n[nH]1`, the concentration for half-maximal inhibition (IC50) came to 18.8 µM in the series on SJSA-1, 1.44 µM in the series with MDA-MB-231 [1], 1.44 µM with A549 and 5.5 µM in the series with HeLa. For the same compound, the half-inhibitory concentration (IC50) at 48 h in series [2] is 2.74 µM.
Regarding `Cc1cc(Nc2nc(-c3ccc(N)cc3)nc3cc(N4CCOCC4)ccc23)n[nH]1`, the 50% inhibitory concentration (IC50) amounted to 6.54 µM in the series with SJSA-1, 4.39 µM in the series with MDA-MB-231 [1], 1.64 µM with A549 and 7.3 µM in the series with HeLa.
Regarding `C=CC(=O)Nc1ccccc1-c1nc(Nc2cc(C)[nH]n2)c2ccc(N3CCN(C)CC3)cc2n1`, the half-inhibitory concentration (IC50) at Aurora kinase A amounted to 0.045 µM; in the series on SJSA-1, 13.9 µM; with MDA-MB-231 [1], 13.4 µM; in the series on A549, 19.7 µM; in the series on HeLa, 41.2 µM.

The record behind these values is ChEMBL document CHEMBL5370554, “Discovery of a first-in-class Aurora A covalent inhibitor for the treatment of triple negative breast cancer” (Eur J Med Chem, 2023).
